From patent US12157722B1, “Crystalline hydrochloride salts of N-ethyl-2-(5-fluoro-1H-indol-3-yl)-N-methylethan-1-amine” (Gilgamesh Pharmaceuticals, Inc., priority 2023, dated 2024)

Key:
[1] = Exposure of dry cake to humidity, solid form checked by XRPD; format: physicochemical; details: for XRPD pattern, dry cake exposed to humidity: monofumarate solids exposed to humidity (90% RH/30° C.)
[2] = Dynamic Vapor Sorption (DVS); format: physicochemical; details: 25° C., 75% RH
Description: Dynamic Vapor Sorption (DVS) was performed using a Q5000SA. The sample (5-15 mg) was loaded into a metallic quartz sample pan, suspended from a microbalance, and exposed to a humidified stream of nitrogen gas. Weight changes were relative to a matching empty reference pan opposite the sample, suspended from the microbalance. The sample was held for a minimum of 10 min at each level and only progressed to the next humidity level if there was <0.002% change in weight between measurements (interval: 5 s) or 45 min had elapsed (for 5-65% RH) or 2 h had elapsed (for 80 and 95% RH). The following programs were used: • 1—Equilibration at 50% RH • 2—50% to 5%. (50%, 35%, 20%, and 5%) • 3—5% to 95%(5%, 20%, 35%, 50%, 65%, 80%, and 95%) • 4—95% to 5%(95%, 80%, 65%, 50%, 35%, 20%, and 5%) • 5—5% to 50% (5%, 20%, 35%, and 50%) • 1—Equilibration at 50% RH • 2—50% to 2%. (50%, 40%, 30%, 20%, 10%, and 2%) • 3—2% to 75%(2%, 10%, 20%, 30%, 40%, 50%, 60%, 70% and 75%) • 4—75% to 2%(75%, 70%, 60%, 50%, 40%, 30%, 20%, 10% and 2%) • 5—2% to 50% (2%, 10%, 20%, 30%, 40% and 50%) • 1—Equilibration at 50% RH • 2—50% to 2%.(50%, 40%, 30%, 20%, 10%, and 2%) • 3—2% to 65% (2%, 10%, 20%, 30%, 40%, 50%, 60% and 65%) • 4—65% to 2% (65%, 60%, 50%, 40%, 30%, 20%, 10% and 2%) • 5—2% to 50% (2%, 10%, 20%, 30%, 40% and 50%). […]

## CCN(C)CCc1c[nH]c2ccc(F)cc12.O=C(O)/C=C/C(=O)O [monofumarate Form 1, N-ethyl-2-(5-fluoro-1H-indol-3-yl)-N-methylethan-1-amine monofumarate Form 1]
[1]
  XRPD pattern, dry cake exposed to humidity: Form 1

## CCN(C)CCc1c[nH]c2ccc(F)cc12.CCN(C)CCc1c[nH]c2ccc(F)cc12.O=C(O)/C=C/C(=O)O [hemifumarate Form 1, N-ethyl-2-(5-fluoro-1H-indol-3-yl)-N-methylethan-1-amine hemifumarate Form 1]
[1]; hemifumarate dry cake from EtOH:MTBE (1:1 vol.) exposed to humidity
  XRPD pattern, Humid: deliquescent

## CCN(C)CCc1c[nH]c2ccc(F)cc12.Cl [hydrochloride Form 1, N-ethyl-2-(5-fluoro-1H-indol-3-yl)-N-methylethan-1-amine hydrochloride Form 1]
[2]
  DVS isotherm, equilibration behaviour: did not reach equilibrium at 75% RH

## CCN(C)CCc1c[nH]c2ccc(F)cc12.O=C(O)/C=C/C(=O)O [monofumarate Form 2, N-ethyl-2-(5-fluoro-1H-indol-3-yl)-N-methylethan-1-amine monofumarate Form 2]
[1]
  XRPD pattern, dry cake exposed to humidity: slowly converted to Form 1
